{"source": "patent US11180811B2", "about": "“Molecular signatures of conditions associated with longevity” (The Brigham and Women's Hospital, Inc., priority 2014, dated 2021)", "key": {"[1]": {"test_system": "Kidney longevity gene expression signature", "assay": "Compounds that shift gene expression in the direction of longevity (Table 6), kidney", "excerpt": "(§1) The methods, assays, and systems described herein can be useful in a number of areas, including the discovery and validation of new targets for reducing rate of aging, extending lifespan, reducing incidence and delaying onset of disease and improving overall health of aging populations. Furthermore, the invention can facilitate the discovery and development of drugs, biologicals and treatment regimens based on the above that favorably intervene in the aging process. For example, the gene expression signatures described herein can be used to choose target gene products in a therapeutic protocol, to elaborate the biological function of the target gene product in the aging process, and to identify compounds that alleviate deterioration associated with aging by modulating the activity of target gene products. For example, several compounds that shift gene expression in the direction of longevity have been identified or validated using the assays or methods described herein (Table 6).\n(§2) In Table 6, several compounds that shift gene expression in the direction of longevity have been identified or validated."}, "[2]": {"test_system": "Brain longevity gene expression signature", "assay": "Compounds that shift gene expression in the direction of longevity (Table 6), brain", "excerpt": "as §1, §2"}, "[3]": {"test_system": "Liver longevity gene expression signature", "assay": "Compounds that shift gene expression in the direction of longevity (Table 6), liver", "excerpt": "as §1, §2"}, "mice": {"test_system": "mice", "settings": "elevated growth hormone treatment during development (Panici et al., 2010); cited from earlier work"}}}
{"molecule": "CCCCC/C=C/C=C1/C(=O)C=C[C@@H]1C/C=C\\CCCC(=O)O", "note": "[15Δ prostaglandin J2]", "values": [{"measurement": "Direction of lifespan associated with the compound's shift of gene expression (Increased lifespan / Decreased lifespan)", "setting": "[1]", "value": "Decreased"}, {"measurement": "Direction of lifespan associated with the compound's shift of gene expression (Increased lifespan / Decreased lifespan)", "setting": "[2]", "value": "Decreased"}, {"measurement": "Direction of lifespan associated with the compound's shift of gene expression (Increased lifespan / Decreased lifespan)", "setting": "[3]", "value": "Decreased"}]}
{"molecule": "CO[C@H]1/C=C\\C=C(/C)C(=O)NC2=CC(=O)C(NCCN(C)C)=C(C[C@@H](C)C[C@H](OC)[C@H](O)[C@@H](C)/C=C(\\C)[C@@H]1OC(N)=O)C2=O", "note": "[Alvespimycin]", "values": [{"measurement": "Direction of lifespan associated with the compound's shift of gene expression (Increased lifespan / Decreased lifespan)", "setting": "[2]", "value": "Decreased"}]}
{"molecule": "NC12CC3CC(CC(C3)C1)C2", "note": "[Amantadine]", "values": [{"measurement": "Direction of lifespan associated with the compound's shift of gene expression (Increased lifespan / Decreased lifespan)", "setting": "[2]", "value": "Increased"}]}
{"molecule": "CN(C)CCOC(C)(c1ccccc1)c1ccccn1", "note": "(centres unmarked) [Doxylamine]", "values": [{"measurement": "Direction of lifespan associated with the compound's shift of gene expression (Increased lifespan / Decreased lifespan)", "setting": "[3]", "value": "Decreased"}]}
{"molecule": "C[C@H]1O[C@@H](O[C@H]2CC[C@]3(C=O)[C@H]4CC[C@]5(C)[C@@H](C6=CC(=O)OC6)CC[C@]5(O)[C@@H]4CC[C@]3(O)C2)C[C@H](O)[C@@H]1O", "note": "[Helveticoside]", "values": [{"measurement": "Direction of lifespan associated with the compound's shift of gene expression (Increased lifespan / Decreased lifespan)", "setting": "[3]", "value": "Increased"}]}
{"molecule": "CCc1c2c(nc3ccc(OC(=O)N4CCC(N5CCCCC5)CC4)cc13)-c1cc3c(c(=O)n1C2)COC(=O)[C@]3(O)CC", "note": "[Irinotecan]", "values": [{"measurement": "Direction of lifespan associated with the compound's shift of gene expression (Increased lifespan / Decreased lifespan)", "setting": "[1]", "value": "Increased"}, {"measurement": "Direction of lifespan associated with the compound's shift of gene expression (Increased lifespan / Decreased lifespan)", "setting": "[2]", "value": "Increased"}]}
{"molecule": "O[C@H]1[C@H]2c3cc4c(cc3CN3CCC(=C[C@@H]1O)[C@H]23)OCO4", "note": "[Lycorine]", "values": [{"measurement": "Direction of lifespan associated with the compound's shift of gene expression (Increased lifespan / Decreased lifespan)", "setting": "[1]", "value": "Decreased"}]}
{"molecule": "C[C@@H]1C[C@H]2O[C@@H]2/C=C\\C=C\\C(=O)Cc2c(Cl)c(O)cc(O)c2C(=O)O1", "note": "[Monorden]", "values": [{"measurement": "Direction of lifespan associated with the compound's shift of gene expression (Increased lifespan / Decreased lifespan)", "setting": "[3]", "value": "Decreased"}]}
{"molecule": "Oc1ccc(C=Cc2cc(O)cc(O)c2)cc1", "note": "[Resveratrol]", "values": [{"measurement": "Direction of lifespan associated with the compound's shift of gene expression (Increased lifespan / Decreased lifespan)", "setting": "[3]", "value": "Increased"}]}
{"molecule": "Artemizole", "values": [{"measurement": "Direction of lifespan associated with the compound's shift of gene expression (Increased lifespan / Decreased lifespan)", "setting": "[3]", "value": "Increased"}]}
{"molecule": "growth hormone", "values": [{"measurement": "Effect on lifespan", "setting": "mice", "value": "shortens lifespan"}]}
